# Source: US20220267300A1 (NodThera Limited, priority 2019, published 2022)
# Tested on: IL-1β release upon NLRP3 activation in peripheral blood mononuclear cells (PBMC)
# Assay: PBMC IC50 determination assay (inhibition of IL-1β release)
# Format: cell-based
# Settings: Homo sapiens; IL-1β release from LPS-primed PBMC stimulated with ATP (5 mM) or nigericin (10 μM); ELISA or HTRF; corresponding sodium salts evaluated
# Description: The compounds of the present disclosure were tested for their inhibitory activity against IL-1β release upon NLRP3 activation in peripheral blood mononuclear cells (PBMC).
# Protocol A. PBMC were isolated from buffy coats by density gradient centrifugation on Histopaque-1077 (Sigma, cat no. 10771). Isolated cells were seeded into the wells of a 96-well plate and incubated for 3 h with lipopolysaccharide (LPS). Following medium exchange, the compounds of the present disclosure were added (a single compound per well) and the cells were incubated for 30 min. Next, the cells were stimulated either with ATP (5 mM) or nigericin (10 μM) for 1 h and the cell culture media from the wells were collected for further analysis.
# The release of IL-1β into the media was determined by a quantitative detection of IL-1β in the media using an IL-1β enzyme-linked immunosorbent assay (ELISA) Ready-SET-Go!, eBioscience cat. No. 88-7261-88. Briefly, in a first step, high affinity binding plates (Corning, Costar 9018 or NUNC Maxisorp Cat No. 44-2404) were coated overnight at 4° C. with specific capture antibody included in the kit (anti-human IL-1β ref. 14-7018-68). Subsequently, plates were blocked with blocking buffer for 1 h at room temperature (rt) and after washing with a buffer (PBS with 0.05% Tween-20) incubated with protein standard and culture media. After 2 h of incubation at rt, plates were washed and incubated with biotinylated detection antibody included in the kit (anti-human IL-1β Biotin ref. 33-7110-68) for 1 h at rt. Plates were washed and incubated with HRP-streptavidin for 30 min at rt and washed again. The signal was developed after addition of 3,3′,5,5′-tetramethylbenzidine-peroxidase (TMB) until colour appeared and the reaction was stopped by 2 M H2SO4. A microplate spectrophotometer (BioTek) was used to detect signals with 450 nm. The detection range of IL-1β ELISA was 2-150 ng/ml.
# Protocol B. PBMC were isolated from buffy coats by density gradient centrifugation on Histopaque-1077 (Sigma, cat no. 10771). Isolated cells were seeded into the wells (280,000 cells/well) of a 96-well plate and incubated for 3 h with lipopolysaccharide (LPS, 1 μg/ml diluted 1000× from a 1 mg/ml stock solution). The compounds of the present disclosure were added (a single compound per well) and the cells were incubated for 30 min. Next, the cells were stimulated with ATP (5 mM final concentration diluted 20× from a 100 mM stock solution) for 1 h and the cell culture media from the wells were collected for further analysis.
# The release of IL-1β into the media was determined by quantitative detection of IL-1β in the media using HTRF®, CisBio cat. No. 62HIL1BPEH. Briefly, cell culture supernatant were dispensed directly into the assay plate containing antibodies labelled with the HTRF® donor and acceptor. A microplate spectrophotometer (BMG) was used to detect signals at 655 nm and 620 nm. The detection range of IL-1β HTRF® was 39-6500 pg/ml.
row,SMILES,IC50 [µM]
1,Cn1cc(N(CCCN)S(=O)(=O)NC(=O)Cc2c3c(cc4c2CCC4)CCC3)cn1 [Example 34],≥ 50
2,"CN1CCCC(N(c2cnn(C)c2)S(=O)(=O)NC(=O)Cc2cc(C(F)(F)F)cc(C(F)(F)F)c2)C1 (stereo not shown) [Example 6, 2-[3,5-Bis(trifluoromethyl)phenyl]-N-[(1-methyl-1H-pyrazol-4-yl)(1-methylpiperidin-3-yl)sulfamoyl]acetamide]",< 1
3,CC(C)c1cc(F)cc(C(C)C)c1CC(=O)NS(=O)(=O)N(c1cnn(C)c1)C1CCN(C)CC1 [Example 31],≥ 50
4,CN1CCC[C@H]1CN(c1cnn(C)c1)S(=O)(=O)NC(=O)Cc1ccc(C(F)(F)F)cc1Cl [Example 37],≥ 50
5,"Cn1cc(N(CCNCC(F)F)S(=O)(=O)NC(=O)Cc2c3c(cc4c2CCC4)CCC3)cn1 [Example 24, N-({2-[(2,2-Difluoroethyl)amino]ethyl}(1-methyl-1H-pyrazol-4-yl)sulfamoyl)-2-(1,2,3,5,6,7-hexahydro-s-indacen-4-yl)acetamide]",< 1
6,CN1CCC[C@H]1CN(c1cnn(C)c1)S(=O)(=O)NC(=O)Cc1cc(Cl)cc(C(C)(C)C)c1 (stereo in doubt) [Example 56],≥ 50
7,CN1CCCC(N(c2cnn(C)c2)S(=O)(=O)NC(=O)Cc2cc(Cl)cc(Cl)c2)C1 (stereo not shown) [Example 33],10 to 50
8,CC(C)c1cc(Cl)cc(C(C)C)c1CC(=O)NS(=O)(=O)N(C[C@@H]1CCCN1C)c1cnn(C)c1 [Example 40],≥ 50
9,CC(C)c1cccc(CC(=O)NS(=O)(=O)N(c2cnn(C)c2)C2CCCN(C)C2)c1 (stereo not shown) [Example 53],≥ 50
10,"CC(C)c1cc(CC(=O)NS(=O)(=O)N(c2cnn(C)c2)C2CCCN(C)C2)c(C(C)C)s1 (stereo not shown) [Example 14, 2-[2,5-Bis(propan-2-yl)thiophen-3-yl]-N-[(1-methyl-1H-pyrazol-4-yl)(1-methylpiperidin-3-yl)sulfamoyl]acetamide]",< 1
11,"CC(C)c1cc(CC(=O)NS(=O)(=O)N(C[C@@H]2CCCN2C)c2cnn(C)c2)cc(C(C)C)c1 [Example 5, 2-[3,5-Bis(propan-2-yl)phenyl]-N-[(1-methyl-1H-pyrazol-4-yl)({[(2S)-1-methylpyrrolidin-2-yl]methyl})sulfamoyl]acetamide]",< 1
12,"CN1CCC(N(c2cnn(C)c2)S(=O)(=O)NC(=O)Cc2c3c(cc4c2CC4)CC3)CC1 [Example 29, N-[(1-methyl-4-piperidyl)-(1-methylpyrazol-4-yl)sulfamoyl]-2-(2-tricyclo[6.2.0.03,6]deca-1(8),2,6-trienyl)acetamide]",1 to 3
13,Cn1cc(N(CCNC(=O)OCc2ccccc2)S(=O)(=O)NC(=O)Cc2c3c(cc4c2CCC4)CCC3)cn1 [Example 21],3 to 10
14,"Cn1cc(N(C2CCCN(C(=O)OCc3ccccc3)C2)S(=O)(=O)NC(=O)Cc2c3c(cc4c2CCC4)CCC3)cn1 (stereo not shown) [Example 19, Benzyl 3-({[2-(1,2,3,5,6,7-hexahydro-s-indacen-4-yl)acetamido]sulfonyl}(1-methyl-1H-pyrazol-4-yl)amino)piperidine-1-carboxylate]",3 to 10
15,"Cn1cc(N(CCCNC(=O)OCc2ccccc2)S(=O)(=O)NC(=O)Cc2c3c(cc4c2CCC4)CCC3)cn1 [Example 27, Benzyl N-[3-[[2-(1,2,3,5,6,7-hexahydro-s-indacen-4-yl)acetyl]sulfamoyl-(1-methylpyrazol-4-yl)amino]propyl]carbamate]",1 to 3
16,"COc1cc(-c2cc(F)cc(C(C)C)c2CC(=O)NS(=O)(=O)N(c2cnn(C)c2)C2CCCN(C)C2)ccn1 (stereo not shown) [Example 28, 2-[4-Fluoro-2-isopropyl-6-(2-methoxy-4-pyridyl)phenyl]-N-[(1-methyl-3-piperidyl)-(1-methylpyrazol-4-yl)sulfamoyl]acetamide]",3 to 10
17,"Cc1noc(N(C2CCCN(C)C2)S(=O)(=O)NC(=O)Cc2cc(C(C)C)cc(C(C)C)c2)c1C (stereo not shown) [Example 7, 2-[3,5-Bis(propan-2-yl)phenyl]-N-[(3,4-dimethyl-1,2-oxazol-5-yl)(1-methylpiperidin-3-yl)sulfamoyl]acetamide]",< 1

row,SMILES,IC50 [µM]
1,CC(C)c1cc(F)cc(C(C)C)c1CC(=O)NS(=O)(=O)N(c1cnn(C)c1)C1CCOCC1 [Example 30],≥ 50
2,"CC(C)c1ccc(Cl)c(C(C)C)c1CC(=O)NS(=O)(=O)N(C[C@@H]1CCCN1C)c1cnn(C)c1 [Example 12, 2-[3-Chloro-2,6-bis(propan-2-yl)phenyl]-N-[(1-methyl-1H-pyrazol-4-yl)({[(2S)-1-methylpyrrolidin-2-yl]methyl})sulfamoyl]acetamide]",3 to 10
3,CN1CCCC(N(c2cnn(C)c2)S(=O)(=O)NC(=O)Cc2ccc3c(c2)C(C)(C)CO3)C1 (stereo not shown) [Example 49],≥ 50
4,"CN(CCN(c1cnn(C)c1)S(=O)(=O)NC(=O)Cc1c2c(cc3c1CCC3)CCC2)C(=O)OCc1ccccc1 [Example 25, Benzyl N-[2-({[2-(1,2,3,5,6,7-hexahydro-s-indacen-4-yl)acetamido]sulfonyl}(1-methyl-1H-pyrazol-4-yl)amino)ethyl]-N-methylcarbamate]",3 to 10
5,CN1CCC[C@H]1CN(c1cnn(C)c1)S(=O)(=O)NC(=O)Cc1cc(Cl)cc(OCC(F)(F)F)c1 [Example 51],≥ 50
6,CC(C)c1cc(CC(=O)N=S(N)(=O)N(c2cnn(C)c2)C2CCCN(C)C2)cc(C(C)C)c1 (stereo not shown) [Example 41],3 to 10
7,"Cn1cc(N(C2CCCNC2)S(=O)(=O)NC(=O)Cc2c3c(cc4c2CCC4)CCC3)cn1 (stereo not shown) [Example 20, 2-(1,2,3,5,6,7-Hexahydro-s-indacen-4-yl)-N-[(1-methyl-1H-pyrazol-4-yl)(piperidin-3-yl)sulfamoyl]acetamide]",1 to 3
8,"CC(=O)N(C)CCN(c1cnn(C)c1)S(=O)(=O)NC(=O)Cc1c2c(cc3c1CCC3)CCC2 [Example 26, 2-(1,2,3,5,6,7-Hexahydro-s-indacen-4-yl)-N-[(1-methyl-1H-pyrazol-4-yl)[2-(N-methylacetamido)ethyl]sulfamoyl]acetamide]",3 to 10
9,CN1CCC[C@@H]1CN(c1cnn(C)c1)S(=O)(=O)NC(=O)Cc1cc(C(C)(C)C)cc(C(C)(C)C)c1 [Example 54],10 to 50
10,"CC(C)c1cc(Cl)cc(CC(=O)NS(=O)(=O)N(C[C@@H]2CCCN2C)c2cnn(C)c2)c1 [Example 8, 2-[3-Chloro-5-(propan-2-yl)phenyl]-N-[(1-methyl-1H-pyrazol-4-yl)({[(2S)-1-methylpyrrolidin-2-yl]methyl})sulfamoyl]acetamide]",1 to 3
11,CN1CCC[C@H]1CN(c1cnn(C)c1)S(=O)(=O)NC(=O)Cc1cc(C(C)(C)C)cc(C(C)(C)C)c1 [Example 52],≥ 50
12,"CC(C)c1cc(CC(=O)NS(=O)(=O)N(C[C@@H]2CCCN2C)c2cnn(C)c2)cc(C(C)C)c1F [Example 9, 2-[4-Fluoro-3,5-bis(propan-2-yl)phenyl]-N-[(1-methyl-1H-pyrazol-4-yl)({[(2S)-1-methylpyrrolidin-2-yl]methyl})sulfamoyl]acetamide]",10 to 50
13,Cc1ccc(C(C)C)cc1CC(=O)NS(=O)(=O)N(c1cnn(C)c1)C1CCCN(C)C1 (stereo not shown) [Example 48],≥ 50
14,"CC(C)c1cc(CC(=O)NS(=O)(=O)N(C[C@@H]2CCCN2C)c2cnn(C)c2)cc(C(F)(F)F)c1 [Example 10, N-[(1-Methyl-1H-pyrazol-4-yl)({[(2S)-1-methylpyrrolidin-2-yl]methyl})-sulfamoyl]-2-[3-(propan-2-yl)-5-(trifluoromethyl)phenyl]acetamide]",3 to 10
15,"CC(C)c1cc(F)cc(C(C)C)c1CC(=O)NS(=O)(=O)N(c1cnn(C)c1)C1CCCN(C)C1 (stereo not shown) [Example 1, 2-[4-Fluoro-2,6-bis(propan-2-yl)phenyl]-N-[(1-methyl-1H-pyrazol-4-yl)(1-methylpiperidin-3-yl)sulfamoyl]acetamide]",10 to 50
16,"CCc1cc(CC(=O)NS(=O)(=O)N(c2cnn(C)c2)C2CCCN(C)C2)cc(C(F)(F)F)c1 (stereo not shown) [Example 16, 2-[3-Ethyl-5-(trifluoromethyl)phenyl]-N-[(1-methyl-1H-pyrazol-4-yl)(1-methylpiperidin-3-yl)sulfamoyl]acetamide]",3 to 10
17,"CN(C)CCN(c1cnn(C)c1)S(=O)(=O)NC(=O)Cc1c2c(cc3c1CCC3)CCC2 [Example 18, N-{[2-(Dimethylamino)ethyl](1-methyl-1H-pyrazol-4-yl)sulfamoyl}-2-(1,2,3,5,6,7-hexahydro-s-indacen-4-yl)acetamide]",1 to 3
